Values quoted from earlier work, collected in patent publication US20030082109A1, “Dextrorotary nicotine for smoking cessation” (priority 2001, published 2003).
Where two headings read alike, the source gives them in different places.

Key:
[1] = use as alternative alkaloid in smoking substitute; found and reported
living organisms = conditions: compared with l-isomer nicotine, found and reported
[2] = given amount of d-isomer vs like amount of natural l-isomer, in a person

SMILES | adverse side effects [1] | toxicity relative to the natural tobacco-derived l-isomer of nicotine (living organisms) | toxicity relative to the natural tobacco-derived l-isomer of nicotine (living organisms; listed as dextrorotary isomer of nicotine) | sensations and satisfaction relative to a like amount of l-isomer nicotine [2]
CN1[C@@H](CC(=O)c2ccccc2)CCC[C@H]1C[C@H](O)c1ccccc1 [lobeline] | adverse side effects, which are worse than tobacco withdrawal symptoms |  |  | 
CN1CCCC1c1cccnc1 (stereo not drawn) [d-isomer of nicotine, 1 methyl-2-(3-Pyridyl) pyrrolidine] |  | one half as toxic | half as toxic | same sensations and satisfaction
